pIC50: −log10 of the molar value.
What was measured:
MG63.3 cells [1] = assay: Sulforhodamine B cytotoxicity / cell viability assay; type: cell-based; settings: Homo sapiens, MG-63.3
Protocol: Murine K7M2 and human MG63.3 OS cells were treated with increasing concentrations of LY5 for 2 hrs or 7 hrs. Western blotting was performed for pSTAT3 and STAT3 as indicated above to confirm inhibition of STAT3 phosphorylation in the cell lines prior to initiation of the PuMA assay. In addition, a sulforhodamine B colorimetric assay was performed to assess the cytotoxicity of LY5 in K7M2 and MG63.3 cells as previously described.
(§1) MG63.3 and K7M2 cell lines were exposed to increasing concentrations of LY5 to determine the IC50 (A). Western blot analysis was performed to determine the dose and duration of LY5 exposure required to inhibit STAT3 phosphorylation (B-C). Serial imaging of fluorescently labeled MG63.3 and K7M2 cells was performed in ex vivo LY5 treated lung sections (D). Metastatic burden was quantified by evaluation of the percent tumor burden (mean normalized fluorescent area). Data are reported as the mean ± standard deviation. In MG 63.3 experiment, p < 0.0001 Kruskal-Wallis test, p < 0.05 10 μM vs control at days 7, 14, and 21, 10 μM vs 1 μM at days 7, 14, and 21, 50 μM vs control at days 7, 14, and 21, and 50 μM vs 10 μM at days 7, 14, and 21 post-test Dunn. In K7M2 experiment, p < 0.0001 Kruskal-Wallis test, p < 0.05 10 μM vs control at days 14 and 21, 10 μM vs 0.1 μM at days 14 and 21, and 10 μM vs 1 μM at days 14 and 21, post-test Dunn.

STAT3 [2] = biological target: T1, STAT3 (Homo sapiens, UniProt P40763); assay: pSTAT3 in pulmonary metastatic lesions, IHC and Western blotting; type: in vivo, mice; set-up: from tissue; host or cells: OS-17-luc lung metastases and OS-1 subcutaneous PDX tumours in C.B-17 scid mice; settings: 20 mg/kg LY5 daily for 30 days; immunohistochemistry and Western blotting
T1 sequence (P40763 whole entry): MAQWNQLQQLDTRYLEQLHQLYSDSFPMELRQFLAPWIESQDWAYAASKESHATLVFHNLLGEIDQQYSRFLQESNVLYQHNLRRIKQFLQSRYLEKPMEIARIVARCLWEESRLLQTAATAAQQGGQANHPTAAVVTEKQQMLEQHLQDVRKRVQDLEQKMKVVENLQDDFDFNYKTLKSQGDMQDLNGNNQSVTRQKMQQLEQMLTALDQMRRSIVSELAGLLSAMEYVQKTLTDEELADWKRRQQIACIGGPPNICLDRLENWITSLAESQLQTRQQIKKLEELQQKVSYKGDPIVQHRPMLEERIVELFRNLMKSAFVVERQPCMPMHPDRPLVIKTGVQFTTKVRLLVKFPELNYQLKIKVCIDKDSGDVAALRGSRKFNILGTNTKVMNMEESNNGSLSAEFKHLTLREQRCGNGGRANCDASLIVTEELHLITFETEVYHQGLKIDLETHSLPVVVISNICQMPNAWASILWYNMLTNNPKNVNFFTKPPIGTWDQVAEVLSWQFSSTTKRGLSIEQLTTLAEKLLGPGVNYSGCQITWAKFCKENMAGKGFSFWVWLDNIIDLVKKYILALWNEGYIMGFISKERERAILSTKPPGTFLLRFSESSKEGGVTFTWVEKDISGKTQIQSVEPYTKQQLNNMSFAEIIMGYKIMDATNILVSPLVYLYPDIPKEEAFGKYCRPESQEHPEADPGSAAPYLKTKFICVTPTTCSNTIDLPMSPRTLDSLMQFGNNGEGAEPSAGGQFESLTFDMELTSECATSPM
Protocol: The ability of LY5 to inhibit pulmonary metastases was evaluated using a murine model of OS pulmonary metastasis. 8-week-old C.B-17 scid -/- female mice (Envigo, Madison, WI) received IV inoculation with 10^6 OS-17-luc cells expressing a luciferase reporter gene. OS-17-luc cells were generated by infecting OS-17 wild type cells with lentivirus containing the firefly luciferase under a CMV promoter (Cellomics Technology, Hallethorpe, MD) and selected with 0.5 ug/mL puromycin (Thermo Fisher Scientific, Waltham, MA). Beginning 24 hrs after inoculation, mice received vehicle (n = 10) or 20 mg/kg LY5 once daily via oral gavage (n = 9, one mouse died within 24 hrs after cell inoculation). LY5 was prepared by diluting a 40 mg/mL solution/slurry with a 50% propylene glycol/1% Tween 20 in water vehicle immediately before administration. Mice were treated with LY5 for 30 days, and bioluminescent imaging (after IP luciferin administration) was performed to determine pulmonary metastatic disease load. To investigate the pharmacodynamics (PD) effects of LY5, pSTAT3 (p-Tyr705, ab76315, Abcam) and total STAT3 (ab119352, Abcam) were evaluated in pulmonary metastatic lesions using IHC in lung samples from mice euthanized 24 hrs after their last dose.
(A-B) IHC staining of lung metastasis from mice treated with LY5. The metastatic tumor sections were stained with pSTAT3 or hematoxylin and eosin. […]

STAT3 [3] = biological target: T1, STAT3; assay: IL-6 / OSM induced STAT3 phosphorylation in SJSA cells, Western blot; type: cell-based; set-up: endogenous in cells; settings: LY5 two hours then 50 ng/mL cytokine 30 minutes
Protocol: Cell lysis, protein isolation and immunoblotting were performed as described previously. Twenty micrograms of protein were resolved using 4–12% Bis-Tris polyacrylamide gels. Gels were transferred to PVDF membranes and subjected to blocking and incubation with primary and secondary antibodies. The primary antibodies used in this study included: phospho-STAT3 (Tyr705, Cell Signaling, Boston, MA and Abcam, Cambridge, MA), total STAT3 (Cell Signaling and Abcam), phospho-STAT1 (Cell Signaling), total STAT1 (Cell Signaling), phospho-STAT2 (Cell Signaling), phospho-STAT4 (Cell Signaling), phospho-STAT6 (Cell Signaling), and GAPDH (Cell Signaling). Protein bands were detected using Western Lightning ® Plus Enhanced Chemiluminescence substrate (Perkin Elmer, Waltham, MA) and HyBlot CL ® Autoradiography film (Denville Scientific, Holliston, MA). The cytokines used in this study included: interferon gamma (IFN-γ, Cell Signaling), interferon alpha (IFN-α, Cell Signaling), interleukin-4 (IL-4, Cell Signaling), interleukin-6 (IL-6, Cell Signaling), and oncostatin M (OSM, Cell Signaling).
Fig 1 LY5 inhibits pSTAT3 in sarcoma cell lines. (A) The tumor cell lines RH30, EW8, and RD were treated with increasing concentrations of LY5 for 30 minutes. Cell lysates were collected for Western blotting of p-STAT3, total STAT3, and GAPDH. GAPDH was used as loading control. […]

MG63.3 cells [4] = assay: Ex vivo pulmonary metastasis assay (PuMA); type: cell-based, human; settings: MG 63.3, 10 μM and 50 μM LY5, up to 21 days
Protocol: GFP-positive K7M2 and MG63.3 cells (3 x 10^5 MG63.3; 5 x 10^5 K7M2) were administered via tail vein injection into mice. Following humane euthanasia, the lungs were insufflated with a culture medium/agarose mixture to a constant hydrostatic pressure of 20 cm H2O and prepared for ex vivo culture as previously described. Lung sections were cultured in complete media containing LY5 (0, 0.1, 1, 10 or 50 μM) on sterile Gelfoam using 6 lung sections per treatment condition. Media was changed every 48 hrs and lung slices were imaged with a fluorescent microscope every 7 days for a total of 21 days.
as §1, with “In K7M2 experiment, p < 0.0001 Kruskal-Wallis test, p < 0.05 10 μM vs control at days 14 and 21, 10 μM vs 0.1 μM at days 14 and 21, and 10 μM vs 1 μM at days 14 and 21, post-test Dunn.” left out

NS(=O)(=O)c1cccc2c1C(=O)C=C(Nc1cccnc1)C2=O [LY5, 5,8-dioxo-6-(pyridin-3-ylamino)-5,8-dihydronaphthalene-1-sulfonamide]
pIC50 (MG63.3 cells [1]): 5.52
STAT3 phosphorylation in pulmonary metastatic lesions (STAT3 [2]): inhibited STAT3 phosphorylation
IL-6 and OSM induced STAT3 phosphorylation (STAT3 [3]): effectively blocked
percent tumor burden in PuMA (MG63.3 cells [4]): significantly decreased

Reference: paper PMC5531494, “Target specificity, in vivo pharmacokinetics, and efficacy of the putative STAT3 inhibitor LY5 in osteosarcoma, Ewing's sarcoma, and rhabdomyosarcoma” (PLoS ONE, 2017)
